Results from PMC4620497 (Scientific Reports, 2015).

What was measured:
ACVR2A = molecular target: T1, ACVR2A (Homo sapiens, UniProt P27037); test: KINOMEscan panel screen; assay type: binding; conditions: read-out: Percent Control(%)
T1 construct: purchased DiscoveRx KINOMEscan (Ambit Biosciences)

ANKK1 = molecular target: T2, ANKK1 (Homo sapiens, UniProt Q8NFD2); test: KINOMEscan panel screen; assay type: binding; conditions: read-out: Percent Control(%)
T2 construct: purchased DiscoveRx KINOMEscan (Ambit Biosciences)

BMPR2 = molecular target: T3, BMPR2 (Homo sapiens, UniProt Q13873); test: KINOMEscan panel screen; assay type: binding; conditions: read-out: Percent Control(%)
T3 construct: purchased DiscoveRx KINOMEscan (Ambit Biosciences)

CAMK2A = molecular target: T4, CAMK2A (Homo sapiens, UniProt Q9UQM7); test: KINOMEscan panel screen; assay type: binding; conditions: read-out: Percent Control(%)
T4 construct: purchased DiscoveRx KINOMEscan (Ambit Biosciences)

ERK1 = molecular target: T5, ERK1 (Homo sapiens, UniProt P27361); test: KINOMEscan panel screen; assay type: binding; conditions: read-out: Percent Control(%)
T5 construct: purchased DiscoveRx KINOMEscan (Ambit Biosciences)

FLT3(ITD) = test: KINOMEscan panel screen; assay type: binding, human; conditions: 10 μM
HIPK1 = molecular target: T6, HIPK1 (Homo sapiens, UniProt Q86Z02); test: KINOMEscan panel screen; assay type: binding; conditions: read-out: Percent Control(%)
T6 construct: purchased DiscoveRx KINOMEscan (Ambit Biosciences)
T6 sequence (Q86Z02 whole entry): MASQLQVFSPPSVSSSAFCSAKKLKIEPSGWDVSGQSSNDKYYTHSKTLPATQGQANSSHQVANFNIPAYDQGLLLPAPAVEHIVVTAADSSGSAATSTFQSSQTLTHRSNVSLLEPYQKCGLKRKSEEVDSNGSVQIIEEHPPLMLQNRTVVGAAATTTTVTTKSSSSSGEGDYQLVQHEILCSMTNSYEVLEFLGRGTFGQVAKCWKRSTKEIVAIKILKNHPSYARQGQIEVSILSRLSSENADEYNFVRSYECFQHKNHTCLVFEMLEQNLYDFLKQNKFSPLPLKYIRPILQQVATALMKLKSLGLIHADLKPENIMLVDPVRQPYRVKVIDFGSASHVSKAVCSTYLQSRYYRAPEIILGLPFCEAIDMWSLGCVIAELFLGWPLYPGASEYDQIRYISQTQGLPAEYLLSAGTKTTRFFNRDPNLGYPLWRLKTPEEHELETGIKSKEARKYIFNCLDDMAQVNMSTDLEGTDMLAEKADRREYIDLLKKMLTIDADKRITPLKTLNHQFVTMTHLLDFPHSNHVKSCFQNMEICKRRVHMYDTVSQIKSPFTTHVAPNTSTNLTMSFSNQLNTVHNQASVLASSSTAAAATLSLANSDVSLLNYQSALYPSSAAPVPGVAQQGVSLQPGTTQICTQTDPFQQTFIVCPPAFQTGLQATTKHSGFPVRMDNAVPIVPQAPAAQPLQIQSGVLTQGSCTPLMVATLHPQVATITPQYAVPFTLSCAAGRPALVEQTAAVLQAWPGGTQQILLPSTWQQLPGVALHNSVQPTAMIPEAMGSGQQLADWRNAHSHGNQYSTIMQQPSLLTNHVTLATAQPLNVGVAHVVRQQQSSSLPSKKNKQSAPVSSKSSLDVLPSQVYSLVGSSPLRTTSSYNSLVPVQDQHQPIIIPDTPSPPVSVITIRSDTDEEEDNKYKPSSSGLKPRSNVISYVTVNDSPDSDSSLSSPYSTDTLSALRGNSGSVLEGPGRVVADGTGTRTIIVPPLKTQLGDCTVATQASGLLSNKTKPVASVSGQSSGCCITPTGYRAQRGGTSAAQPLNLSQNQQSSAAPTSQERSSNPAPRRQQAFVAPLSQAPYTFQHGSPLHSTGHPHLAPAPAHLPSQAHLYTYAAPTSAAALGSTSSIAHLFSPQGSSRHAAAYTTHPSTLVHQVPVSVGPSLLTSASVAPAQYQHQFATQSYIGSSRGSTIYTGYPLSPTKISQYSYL

HPK1 = molecular target: T7, HPK1 (Homo sapiens, UniProt Q92918); test: KINOMEscan panel screen; assay type: binding; conditions: read-out: Percent Control(%)
T7 construct: purchased DiscoveRx KINOMEscan (Ambit Biosciences)
T7 sequence (Q92918 whole entry): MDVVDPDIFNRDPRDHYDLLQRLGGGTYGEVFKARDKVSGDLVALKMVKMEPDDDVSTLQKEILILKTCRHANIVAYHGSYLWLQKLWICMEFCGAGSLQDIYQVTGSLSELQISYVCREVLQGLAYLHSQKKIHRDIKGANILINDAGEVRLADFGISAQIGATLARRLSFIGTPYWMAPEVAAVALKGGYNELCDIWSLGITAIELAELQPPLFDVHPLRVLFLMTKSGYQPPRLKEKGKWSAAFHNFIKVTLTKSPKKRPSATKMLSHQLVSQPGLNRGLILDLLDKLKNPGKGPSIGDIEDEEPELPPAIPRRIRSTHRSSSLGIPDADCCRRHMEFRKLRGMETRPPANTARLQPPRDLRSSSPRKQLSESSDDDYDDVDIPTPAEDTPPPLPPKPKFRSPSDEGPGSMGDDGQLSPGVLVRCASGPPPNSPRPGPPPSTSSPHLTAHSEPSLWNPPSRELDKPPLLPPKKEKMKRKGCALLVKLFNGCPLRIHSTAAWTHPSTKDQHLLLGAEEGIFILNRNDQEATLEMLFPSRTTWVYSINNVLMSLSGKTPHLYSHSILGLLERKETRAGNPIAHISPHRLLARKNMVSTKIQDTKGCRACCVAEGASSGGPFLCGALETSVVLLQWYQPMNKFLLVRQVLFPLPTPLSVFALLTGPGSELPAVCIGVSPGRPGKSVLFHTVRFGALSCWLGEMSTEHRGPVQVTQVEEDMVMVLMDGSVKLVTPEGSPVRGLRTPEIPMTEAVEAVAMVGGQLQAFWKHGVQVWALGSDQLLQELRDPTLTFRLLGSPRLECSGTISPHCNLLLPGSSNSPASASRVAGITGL

IRAK1 = molecular target: T8, IRAK1 (Homo sapiens, UniProt P51617); test: KINOMEscan panel screen; assay type: binding; conditions: read-out: Percent Control(%)
T8 construct: purchased DiscoveRx KINOMEscan (Ambit Biosciences)

[1] = molecular target: T9, JAK2(JH1domain-catalytic) (Homo sapiens, UniProt O60674); test: KINOMEscan panel screen; assay type: binding; conditions: read-out: Percent Control(%)
T9 construct: JAK2(JH1domain-catalytic); purchased DiscoveRx KINOMEscan (Ambit Biosciences)
T9 sequence (O60674 849-1124 limits assumed): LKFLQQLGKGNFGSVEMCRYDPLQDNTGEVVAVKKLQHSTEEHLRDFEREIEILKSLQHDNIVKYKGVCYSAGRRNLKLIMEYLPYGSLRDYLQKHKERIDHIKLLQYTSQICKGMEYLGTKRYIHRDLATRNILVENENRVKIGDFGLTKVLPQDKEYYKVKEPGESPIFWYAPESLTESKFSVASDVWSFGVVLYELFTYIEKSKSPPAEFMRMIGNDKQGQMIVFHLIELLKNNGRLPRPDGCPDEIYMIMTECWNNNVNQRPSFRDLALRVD

JNK3 = molecular target: T10, JNK3 (Homo sapiens, UniProt P53779); test: KINOMEscan panel screen; assay type: binding; conditions: read-out: Percent Control(%)
T10 construct: purchased DiscoveRx KINOMEscan (Ambit Biosciences)
T10 sequence (P53779 whole entry): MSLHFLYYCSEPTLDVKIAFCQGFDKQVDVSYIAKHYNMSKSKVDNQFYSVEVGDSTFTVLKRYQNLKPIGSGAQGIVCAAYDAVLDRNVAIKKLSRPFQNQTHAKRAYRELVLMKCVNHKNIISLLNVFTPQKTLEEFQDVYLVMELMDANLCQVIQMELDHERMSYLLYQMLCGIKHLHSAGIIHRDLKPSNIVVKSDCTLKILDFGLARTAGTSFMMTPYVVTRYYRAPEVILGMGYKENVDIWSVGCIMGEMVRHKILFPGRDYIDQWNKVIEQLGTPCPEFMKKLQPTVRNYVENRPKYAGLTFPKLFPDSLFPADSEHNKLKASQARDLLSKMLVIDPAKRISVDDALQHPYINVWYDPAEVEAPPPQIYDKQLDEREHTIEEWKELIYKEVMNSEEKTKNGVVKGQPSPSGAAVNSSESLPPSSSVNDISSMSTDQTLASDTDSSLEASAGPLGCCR

MEK1 = molecular target: T11, MEK1 (Homo sapiens, UniProt Q02750); test: KINOMEscan panel screen; assay type: binding; conditions: read-out: Percent Control(%)
T11 construct: purchased DiscoveRx KINOMEscan (Ambit Biosciences)
T11 sequence (Q02750 whole entry): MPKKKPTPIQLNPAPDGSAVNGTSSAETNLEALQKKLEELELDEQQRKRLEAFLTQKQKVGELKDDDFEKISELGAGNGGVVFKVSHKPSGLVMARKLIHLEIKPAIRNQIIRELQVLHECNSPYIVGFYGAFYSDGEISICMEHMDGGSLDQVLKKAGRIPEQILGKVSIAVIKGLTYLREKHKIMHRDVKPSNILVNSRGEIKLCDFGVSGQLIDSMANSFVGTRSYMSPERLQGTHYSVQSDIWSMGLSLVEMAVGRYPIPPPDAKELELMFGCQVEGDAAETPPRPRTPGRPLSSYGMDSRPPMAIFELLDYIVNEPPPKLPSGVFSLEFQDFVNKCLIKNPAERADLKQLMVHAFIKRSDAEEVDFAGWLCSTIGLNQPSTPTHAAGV

NDR1 = molecular target: T12, NDR1 (Homo sapiens, UniProt Q15208); test: KINOMEscan panel screen; assay type: binding; conditions: read-out: Percent Control(%)
T12 construct: purchased DiscoveRx KINOMEscan (Ambit Biosciences)

NDR2 = molecular target: T13, NDR2 (Homo sapiens, UniProt Q9Y2H1); test: KINOMEscan panel screen; assay type: binding; conditions: read-out: Percent Control(%)
T13 construct: purchased DiscoveRx KINOMEscan (Ambit Biosciences)
T13 sequence (Q9Y2H1 whole entry): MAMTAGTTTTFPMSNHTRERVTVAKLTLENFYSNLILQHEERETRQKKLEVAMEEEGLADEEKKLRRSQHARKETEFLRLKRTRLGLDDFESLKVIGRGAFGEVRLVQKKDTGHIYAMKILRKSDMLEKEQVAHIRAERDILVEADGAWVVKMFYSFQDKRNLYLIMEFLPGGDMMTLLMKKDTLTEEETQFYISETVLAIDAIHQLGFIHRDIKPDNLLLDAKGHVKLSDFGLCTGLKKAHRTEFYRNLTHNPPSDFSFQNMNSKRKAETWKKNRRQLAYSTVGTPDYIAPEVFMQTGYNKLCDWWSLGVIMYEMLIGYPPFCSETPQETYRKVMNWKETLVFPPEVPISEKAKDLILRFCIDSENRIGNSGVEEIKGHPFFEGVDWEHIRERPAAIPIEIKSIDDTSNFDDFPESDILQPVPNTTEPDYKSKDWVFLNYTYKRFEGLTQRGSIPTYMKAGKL

NLK = molecular target: T14, NLK (Homo sapiens, UniProt Q9UBE8); test: KINOMEscan panel screen; assay type: binding; conditions: read-out: Percent Control(%)
T14 construct: purchased DiscoveRx KINOMEscan (Ambit Biosciences)

p38-beta = molecular target: T15, p38-beta (Homo sapiens, UniProt Q15759); test: KINOMEscan panel screen; assay type: binding; conditions: read-out: Percent Control(%)
T15 construct: purchased DiscoveRx KINOMEscan (Ambit Biosciences)

PIK3CA(E545K) = molecular target: T16, PIK3CA(E545K) (Homo sapiens, UniProt P42336, E545K); test: KINOMEscan panel screen; assay type: binding; conditions: read-out: Percent Control(%)
T16 construct: purchased DiscoveRx KINOMEscan (Ambit Biosciences)

PIM3 = molecular target: T17, PIM3 (Homo sapiens, UniProt Q86V86); test: KINOMEscan panel screen; assay type: binding; conditions: read-out: Percent Control(%)
T17 construct: purchased DiscoveRx KINOMEscan (Ambit Biosciences)

PLK4 = molecular target: T18, PLK4 (Homo sapiens, UniProt O00444); test: KINOMEscan panel screen; assay type: binding; conditions: read-out: Percent Control(%)
T18 construct: purchased DiscoveRx KINOMEscan (Ambit Biosciences)

PRKD1 = molecular target: T19, PRKD1 (Homo sapiens, UniProt Q15139); test: KINOMEscan panel screen; assay type: binding; conditions: read-out: Percent Control(%)
T19 construct: purchased DiscoveRx KINOMEscan (Ambit Biosciences)

[2] = molecular target: T20, RSK2(Kin.Dom.2-C-terminal) (Homo sapiens, UniProt P51812); test: KINOMEscan panel screen; assay type: binding; conditions: read-out: Percent Control(%)
T20 construct: RSK2(Kin.Dom.2-C-terminal); purchased DiscoveRx KINOMEscan (Ambit Biosciences)

SNRK = molecular target: T21, SNRK (Homo sapiens, UniProt Q9NRH2); test: KINOMEscan panel screen; assay type: binding; conditions: read-out: Percent Control(%)
T21 construct: purchased DiscoveRx KINOMEscan (Ambit Biosciences)

STK16 = molecular target: T22, STK16 (Homo sapiens, UniProt O75716); test: KINOMEscan panel screen; assay type: binding; conditions: read-out: Percent Control(%)
T22 construct: purchased DiscoveRx KINOMEscan (Ambit Biosciences)
T22 sequence (O75716 whole entry): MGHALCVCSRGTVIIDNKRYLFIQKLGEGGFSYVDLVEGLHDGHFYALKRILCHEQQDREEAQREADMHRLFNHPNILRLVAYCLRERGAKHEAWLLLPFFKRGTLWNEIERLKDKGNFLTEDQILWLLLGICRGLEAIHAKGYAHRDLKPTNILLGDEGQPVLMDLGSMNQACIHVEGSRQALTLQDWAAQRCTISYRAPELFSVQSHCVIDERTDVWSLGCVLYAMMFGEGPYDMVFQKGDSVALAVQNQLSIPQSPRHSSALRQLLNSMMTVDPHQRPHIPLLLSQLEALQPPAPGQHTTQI

TIE2 = molecular target: T23, TIE2 (Homo sapiens, UniProt Q02763); test: KINOMEscan panel screen; assay type: binding; conditions: read-out: Percent Control(%)
T23 construct: purchased DiscoveRx KINOMEscan (Ambit Biosciences)

[3] = molecular target: T24, TYK2(JH1domain-catalytic) (Homo sapiens, UniProt P29597); test: KINOMEscan panel screen; assay type: binding; conditions: read-out: Percent Control(%)
T24 construct: TYK2(JH1domain-catalytic); purchased DiscoveRx KINOMEscan (Ambit Biosciences)
T24 sequence (P29597 871-1187 limits assumed): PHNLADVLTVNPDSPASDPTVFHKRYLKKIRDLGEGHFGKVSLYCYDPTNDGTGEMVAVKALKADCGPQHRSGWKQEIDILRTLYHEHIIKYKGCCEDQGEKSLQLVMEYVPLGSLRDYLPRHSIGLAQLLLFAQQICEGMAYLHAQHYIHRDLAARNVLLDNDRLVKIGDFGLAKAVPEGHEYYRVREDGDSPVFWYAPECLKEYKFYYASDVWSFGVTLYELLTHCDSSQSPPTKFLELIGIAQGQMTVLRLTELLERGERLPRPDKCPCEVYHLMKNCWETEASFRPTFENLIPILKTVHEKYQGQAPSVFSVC

[4] = molecular target: T25, TYK2(JH2domain-pseudokinase) (Homo sapiens, UniProt P29597); test: KINOMEscan panel screen; assay type: binding; conditions: read-out: Percent Control(%)
T25 construct: TYK2(JH2domain-pseudokinase); purchased DiscoveRx KINOMEscan (Ambit Biosciences)

VEGFR2 = molecular target: T26, VEGFR2 (Homo sapiens, UniProt P35968); test: KINOMEscan panel screen; assay type: binding; conditions: read-out: Percent Control(%)
T26 construct: DNA tag (qPCR read-out); purchased Ambit Biosciences (KINOMEscan service)

WNK1 = molecular target: T27, WNK1 (Homo sapiens, UniProt Q9H4A3); test: KINOMEscan panel screen; assay type: binding; conditions: read-out: Percent Control(%)
T27 construct: purchased DiscoveRx KINOMEscan (Ambit Biosciences)

YANK2 = molecular target: T28, YANK2 (Homo sapiens, UniProt Q9NY57); test: KINOMEscan panel screen; assay type: binding; conditions: read-out: Percent Control(%)
T28 construct: purchased DiscoveRx KINOMEscan (Ambit Biosciences)

ZAK = molecular target: T29, ZAK (Homo sapiens, UniProt Q9NYL2); test: KINOMEscan panel screen; assay type: binding; conditions: read-out: Percent Control(%)
T29 construct: purchased DiscoveRx KINOMEscan (Ambit Biosciences)

DCLK1 = molecular target: T30, DCLK1 (Homo sapiens, UniProt O15075); test: KINOMEscan kinase binding assay (Kd)
T30 construct: purchased Ambit Biosciences (KINOMEscan)
T30 sequence (O15075 whole entry): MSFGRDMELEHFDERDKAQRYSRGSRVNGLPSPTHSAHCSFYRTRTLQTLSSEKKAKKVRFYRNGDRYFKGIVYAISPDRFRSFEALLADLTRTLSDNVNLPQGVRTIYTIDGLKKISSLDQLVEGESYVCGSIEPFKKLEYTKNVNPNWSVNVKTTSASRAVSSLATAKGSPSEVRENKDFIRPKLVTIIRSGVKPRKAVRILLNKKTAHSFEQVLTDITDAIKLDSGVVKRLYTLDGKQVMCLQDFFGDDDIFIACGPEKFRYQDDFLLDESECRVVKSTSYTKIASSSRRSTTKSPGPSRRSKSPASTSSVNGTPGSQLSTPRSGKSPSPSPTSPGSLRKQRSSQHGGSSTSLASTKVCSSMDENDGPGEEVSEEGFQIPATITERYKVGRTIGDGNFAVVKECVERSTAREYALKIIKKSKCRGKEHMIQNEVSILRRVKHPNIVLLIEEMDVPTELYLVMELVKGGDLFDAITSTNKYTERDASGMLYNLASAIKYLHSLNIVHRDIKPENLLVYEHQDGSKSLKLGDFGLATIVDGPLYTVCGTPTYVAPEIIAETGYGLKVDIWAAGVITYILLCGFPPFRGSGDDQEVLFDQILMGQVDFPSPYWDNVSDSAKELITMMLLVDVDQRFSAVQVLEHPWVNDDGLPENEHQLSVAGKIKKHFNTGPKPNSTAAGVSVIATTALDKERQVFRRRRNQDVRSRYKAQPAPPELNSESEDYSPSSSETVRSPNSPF

PC-9 = test: MTT cell viability assay; conditions: Homo sapiens, PC-9, 72 h
DMPK = molecular target: T31, DMPK (Homo sapiens, UniProt Q09013); set-up: method as in earlier work; conditions: Table S1; cited from earlier work
T31 construct: purchased DiscoveRx KINOMEscan (Ambit Biosciences)
T31 sequence (Q09013 1-629): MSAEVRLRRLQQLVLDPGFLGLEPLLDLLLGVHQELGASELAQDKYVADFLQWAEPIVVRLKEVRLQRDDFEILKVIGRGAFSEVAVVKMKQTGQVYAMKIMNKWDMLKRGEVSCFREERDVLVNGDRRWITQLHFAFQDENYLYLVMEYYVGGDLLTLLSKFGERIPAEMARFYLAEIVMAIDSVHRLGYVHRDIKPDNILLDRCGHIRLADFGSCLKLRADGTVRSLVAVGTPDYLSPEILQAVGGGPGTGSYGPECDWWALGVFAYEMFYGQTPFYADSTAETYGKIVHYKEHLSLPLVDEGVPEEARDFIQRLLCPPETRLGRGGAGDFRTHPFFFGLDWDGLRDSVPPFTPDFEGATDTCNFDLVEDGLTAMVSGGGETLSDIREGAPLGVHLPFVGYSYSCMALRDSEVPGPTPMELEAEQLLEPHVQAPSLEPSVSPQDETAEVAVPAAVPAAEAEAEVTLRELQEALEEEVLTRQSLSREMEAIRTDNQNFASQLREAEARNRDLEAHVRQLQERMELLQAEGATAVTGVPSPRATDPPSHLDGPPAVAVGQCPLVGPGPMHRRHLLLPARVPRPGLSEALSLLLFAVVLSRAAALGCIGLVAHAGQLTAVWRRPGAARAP

## CC(C)(C)c1cc(NC(=O)Nc2ccc(Oc3ncnc4[nH]ncc34)c(F)c2)no1 [SKLB-677, 1-(4-(1H-pyrazolo[3,4-d]pyrimidin-4-yloxy)-3-fluorophenyl)-3-(5-tert-butylisoxazol-3-yl)urea]
ACVR2A
  remaining binding at 10 µM: 100%
ANKK1
  remaining binding at 10 µM: 57%
BMPR2
  remaining binding at 10 µM: 14%
CAMK2A
  remaining binding at 10 µM: 73%
ERK1
  remaining binding at 10 µM: 76%
FLT3(ITD)
  Percent Control(%): 0.05%
HIPK1
  remaining binding at 10 µM: 68%
HPK1
  remaining binding at 10 µM: 13%
IRAK1
  remaining binding at 10 µM: 2%
[1]
  remaining binding at 10 µM: 31%
JNK3
  remaining binding at 10 µM: 18%
MEK1
  remaining binding at 10 µM: 7.2%
NDR1
  remaining binding at 10 µM: 58%
NDR2
  remaining binding at 10 µM: 56%
NLK
  remaining binding at 10 µM: 1.2%
p38-beta
  remaining binding at 10 µM: 0.2%
PIK3CA(E545K)
  remaining binding at 10 µM: 100%
PIM3
  remaining binding at 10 µM: 40%
PLK4
  remaining binding at 10 µM: 68%
PRKD1
  remaining binding at 10 µM: 98%
[2]
  remaining binding at 10 µM: 100%
SNRK
  remaining binding at 10 µM: 100%
STK16
  remaining binding at 10 µM: 36%
TIE2
  remaining binding at 10 µM: 0.2%
[3]
  remaining binding at 10 µM: 44%
[4]
  remaining binding at 10 µM: 100%
VEGFR2
  remaining binding at 10 µM: 0.1%
WNK1
  remaining binding at 10 µM: 100%
YANK2
  remaining binding at 10 µM: 50%
ZAK
  remaining binding at 10 µM: 1.5%
DCLK1
  Kd: > 10 µM
PC-9
  IC50: 8.03 µM

## O=C(Nc1ccc(Oc2ncnc3[nH]ncc23)cc1)Nc1ccc(Cl)c(C(F)(F)F)c1 [Compound 1, 1-(4-(1H-pyrazolo[3,4-d]pyrimidin-4-yloxy)phenyl)-3-(4-chloro-3-(trifluoromethyl)phenyl)urea]
DMPK
  IC50: > 10 µM
